Experimental data from publication PMC6895180 (Nature Communications, 2019).
Several values for one entry are separate records, joined by “and”; a condition that tells them apart may be missing. Equal entries are not always repeated.

Columns and labels:
[1] = test system: T. b. brucei AnTAR1.1 PPYRE9; assay: Mouse model of stage 2 HAT (BLI, parasitaemia, SL-RNA qPCR); format: in vivo; details: for BLI of the head region, RLU data: individual animals
Procedure: […] Treatment was initiated at 21 dpi. […] Mice were injected i.p. with […] of D-luciferin and anaesthetised using isoflurane. The luminescent signal was acquired from both the dorsal and ventral side of the animals. […] Animals subjected to the different treatment schemes (from 4 wpi) were additionally imaged over a 5 min exposure time for enhanced sensitivity. […] Tissues were weighed and RNA was extracted using the RNeasy Plus Mini Kit (Qiagen) according to the manufacturer’s recommendations. […] A list of primers used is provided in the Supplementary Methods section of the Supplementary Information. BLI images from the IVIS Spectrum In Vivo Imaging System (Perkin Elmer) were analysed using LivingImage v4.3.1. SoftWoRx suite 2.0 for microscopy (image deconvolution), then processing using the Fiji software.

T. brucei ADKIN = molecular target: T1, T. brucei ADKIN (Trypanosoma brucei brucei, UniProt Q584S6); assay: ADKIN assay (phosphorylation by purified recombinant enzyme, HPLC); format: biochemical; design: Conc.9-MP: unit not given here; details: for Conc.9-MP: TbAK assay; for Act (U/mg): TbAK
T1 sequence (Q584S6 1-345): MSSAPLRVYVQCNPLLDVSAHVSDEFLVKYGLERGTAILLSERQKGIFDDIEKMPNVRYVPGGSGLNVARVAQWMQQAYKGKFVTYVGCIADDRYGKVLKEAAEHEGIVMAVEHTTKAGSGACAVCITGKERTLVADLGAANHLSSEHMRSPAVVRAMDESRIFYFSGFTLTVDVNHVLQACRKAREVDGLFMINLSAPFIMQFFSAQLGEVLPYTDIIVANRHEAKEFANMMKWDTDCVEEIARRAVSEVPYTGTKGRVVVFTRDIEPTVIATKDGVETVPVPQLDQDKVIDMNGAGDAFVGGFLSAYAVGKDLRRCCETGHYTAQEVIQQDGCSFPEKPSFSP
Procedure: The T. brucei ADKIN enzyme was diluted in a buffer containing 0.05% (v/v) Tween-20, 50 mM KCl, 0.1 mM dithiothreitol, and 50 mM Tris-HCl, pH 7.5 (dilution buffer), prior to use in the assay. The final assay mixture contained 12.5 ng T. brucei ADKIN, a range between 50 and 1000 µM of nucleoside 9 (or 1000 µM deoxyadenosine in the control reaction), 100 mM KCl, 10 mM MgCl2, 0.5 mM ATP, 5 mM potassium phosphate and 50 mM Tris-HCl, pH 7.5. The assay was incubated at 37 °C for 30 min, and subsequently heated for 2 min at 100 °C to inactivate the enzyme, diluted with 2 volumes of water, centrifuged through a Nanosep 3k Omega filter and mixed 1:1:2 with water and mobile phase. The HPLC analysis was performed on a 2.1 × 150 mm ACE Excel C18 column using a mobile phase composition 4A:76B:20C (see nucleotide pool analysis, Supplementary Information for details). Using these conditions, consecutive samples could be loaded (Supplementary Fig. 12). After 4–5 samples, the column was washed with high percent A (80A:20C) to remove bound ADP and ATP before re-equilibrating the column to original conditions.

[2] = oral 6.25 mg kg^−1 s.i.d. for 5 days
[3] = oral 12.5 mg kg^−1 s.i.d. for 5 days
[4] = oral 25 mg kg^−1 s.i.d. for 5 days

SMILES: Nc1ncnc2c1ccn2[C@@H]1O[C@H](CO)C[C@H]1O [Compound 9, 3’-deoxytubercidin]
- RLU data, individual mice ([1]; 6.25 mg/kg SID, 3 wpi): 1622000 RLU and 3182000 RLU and 2182000 RLU
- RLU data, individual mice ([1]; 6.25 mg/kg SID, 4 wpi): 193100 RLU and 167700 RLU and 117800 RLU
- RLU data, individual mice ([1]; 6.25 mg/kg SID, 5 wpi): 198100 RLU and 192400 RLU and 180700 RLU
- RLU data, individual mice ([1]; 6.25 mg/kg SID, 6 wpi): 97950 RLU and 93770 RLU and 90330 RLU
- RLU data, individual mice ([1]; 6.25 mg/kg SID, 7 wpi): 113500 RLU and 105600 RLU and 105900 RLU
- RLU data, individual mice ([1]; 6.25 mg/kg SID, 8 wpi): 131900 RLU and 113000 RLU and 102800 RLU
- RLU data, individual mice ([1]; 6.25 mg/kg SID, 9 wpi): 108500 RLU and 102400 RLU and 89250 RLU
- RLU data, individual mice ([1]; 6.25 mg/kg SID, 11 wpi): 85510 RLU and 79310 RLU and 77130 RLU
- RLU data, individual mice ([1]; 6.25 mg/kg SID, 12 wpi): 86540 RLU and 80590 RLU and 72940 RLU
- RLU data, individual mice ([1]; 6.25 mg/kg SID, 14 wpi): 72880 RLU and 70430 RLU and 75490 RLU
- RLU data, individual mice ([1]; 12.5 mg/kg SID, 3 wpi): 11680000 RLU and 7405000 RLU
- RLU data, individual mice ([1]; 12.5 mg/kg SID, 4 wpi): 129800 RLU and 121500 RLU
- RLU data, individual mice ([1]; 12.5 mg/kg SID, 5 wpi): 117000 RLU and 123200 RLU
- RLU data, individual mice ([1]; 12.5 mg/kg SID, 6 wpi): 100200 RLU and 88860 RLU
- RLU data, individual mice ([1]; 12.5 mg/kg SID, 7 wpi): 107000 RLU and 110100 RLU
- RLU data, individual mice ([1]; 12.5 mg/kg SID, 8 wpi): 112000 RLU and 128000 RLU
- RLU data, individual mice ([1]; 12.5 mg/kg SID, 9 wpi): 99900 RLU and 94080 RLU
- RLU data, individual mice ([1]; 12.5 mg/kg SID, 11 wpi): 77540 RLU and 81340 RLU
- RLU data, individual mice ([1]; 12.5 mg/kg SID, 12 wpi): 79330 RLU and 83380 RLU
- RLU data, individual mice ([1]; 12.5 mg/kg SID, 14 wpi): 72090 RLU and 77840 RLU
- RLU data, individual mice ([1]; 25 mg/kg BID, 3 wpi): 4672000 RLU and 30200000 RLU
- RLU data, individual mice ([1]; 25 mg/kg BID, 4 wpi): 134400 RLU and 112900 RLU
- RLU data, individual mice ([1]; 25 mg/kg BID, 5 wpi): 112900 RLU and 115900 RLU
- RLU data, individual mice ([1]; 25 mg/kg BID, 6 wpi): 102800 RLU and 99010 RLU
- RLU data, individual mice ([1]; 25 mg/kg BID, 7 wpi): 102400 RLU and 91660 RLU
- RLU data, individual mice ([1]; 25 mg/kg BID, 8 wpi): 110100 RLU and 102600 RLU
- RLU data, individual mice ([1]; 25 mg/kg BID, 9 wpi): 102800 RLU and 96280 RLU
- RLU data, individual mice ([1]; 25 mg/kg BID, 11 wpi): 72280 RLU and 73020 RLU
- RLU data, individual mice ([1]; 25 mg/kg BID, 12 wpi): 82420 RLU and 78930 RLU
- RLU data, individual mice ([1]; 25 mg/kg BID, 14 wpi): 77680 RLU and 76600 RLU
- RLU data, individual mice ([1]; 25 mg/kg SID, 3 wpi): 2495000 RLU and 617400 RLU and 13720000 RLU
- RLU data, individual mice ([1]; 25 mg/kg SID, 4 wpi): 173900 RLU and 151500 RLU and 120200 RLU
- RLU data, individual mice ([1]; 25 mg/kg SID, 5 wpi): 135900 RLU and 123400 RLU and 110100 RLU
- RLU data, individual mice ([1]; 25 mg/kg SID, 6 wpi): 109500 RLU and 97640 RLU and 94120 RLU
- RLU data, individual mice ([1]; 25 mg/kg SID, 7 wpi): 98810 RLU and 105800 RLU and 87010 RLU
- RLU data, individual mice ([1]; 25 mg/kg SID, 8 wpi): 114800 RLU and 132100 RLU and 110100 RLU
- RLU data, individual mice ([1]; 25 mg/kg SID, 9 wpi): 104700 RLU and 110500 RLU and 91280 RLU
- RLU data, individual mice ([1]; 25 mg/kg SID, 11 wpi): 73650 RLU and 88470 RLU and 81640 RLU
- RLU data, individual mice ([1]; 25 mg/kg SID, 12 wpi): 90290 RLU and 88590 RLU and 87820 RLU
- RLU data, individual mice ([1]; 25 mg/kg SID, 14 wpi): 78620 RLU and 86010 RLU and 72810 RLU
- BLI of the head region, RLU data ([1]; 3 wpi (start of treatment, 21 dpi)): 48700000 RLU and 33400000 RLU
- BLI of the head region, RLU data ([1]; 4 wpi): 98400 RLU and 114000 RLU
- BLI of the head region, RLU data ([1]; 5 wpi): 100000 RLU and 105000 RLU
- BLI of the head region, RLU data ([1]; 6 wpi): 109000 RLU and 110000 RLU
- BLI of the head region, RLU data ([1]; 7 wpi): 99500 RLU and 92000 RLU
- BLI of the head region, RLU data ([1]; 8 wpi): 107000 RLU and 96700 RLU
- BLI of the head region, RLU data ([1]; 9 wpi): 90800 RLU and 104000 RLU
- BLI follow-up of surviving mice up to 14 wpi ([1]; mouse, in vivo): did not reveal any signs of relapse
- bioluminescent imaging (BLI) [1, 2]: total clearance in all organs including the CNS
- blood parasitaemia up to 9 wpi [1, 2]: negative blood parasitaemia
- bioluminescent imaging (BLI) [1, 3]: total clearance in all organs including the CNS
- blood parasitaemia up to 9 wpi [1, 3]: negative blood parasitaemia
- bioluminescent imaging (BLI) ([1]; oral 25 mg kg^−1 b.i.d. for 5 days): total clearance of all organs, including the CNS
- blood parasitaemia and survival at 9 wpi ([1]; oral 25 mg kg^−1 b.i.d. for 5 days from 21 dpi): negative blood parasitaemia and survived the pre-set endpoint
- bioluminescent imaging (BLI) [1, 4]: total clearance in all organs including the CNS
- blood parasitaemia up to 9 wpi [1, 4]: negative blood parasitaemia
- parasite burdens in brain, spleen and fat by SL-RNA qPCR ([1]; tissues collected at 121 dpi): complete absence of parasite burdens
- luminescent signal in the head region ([1]; to levels similar to a non-infected control mouse): rapid decline of the signal
- Conc.9-MP (T. brucei ADKIN; substrate 50 µM, 3 series): 11.2244 and 8.987 and 9.705
- Conc.9-MP (T. brucei ADKIN; substrate 100 µM): 19.1548 and 15.376 and 17.4986
- Conc.9-MP (T. brucei ADKIN; substrate 250 µM): 33.0019 and 26.0907 and 28.4308
- Conc.9-MP (T. brucei ADKIN; substrate 500 µM): 42.1131 and 37.0292 and 37.487
- Conc.9-MP (T. brucei ADKIN; substrate 1000 µM): 45.1958 and 43.7663 and 38.425
- Act (U/mg) (T. brucei ADKIN; substrate 50 µM, U = µmol/min): 1.497 U/mg and 1.198 U/mg and 1.294 U/mg
- Act (U/mg) (T. brucei ADKIN; substrate 100 µM): 2.554 U/mg and 2.05 U/mg and 2.333 U/mg
- Act (U/mg) (T. brucei ADKIN; substrate 250 µM): 4.4 U/mg and 3.479 U/mg and 3.791 U/mg
- Act (U/mg) (T. brucei ADKIN; substrate 500 µM): 5.615 U/mg and 4.937 U/mg and 4.998 U/mg
- Act (U/mg) (T. brucei ADKIN; substrate 1000 µM): 6.0261 U/mg and 5.836 U/mg and 5.123 U/mg
- Vmax mg^−1 with TbADKIN (T. brucei ADKIN; mean and SE, n = 3): 0.116 ± 0.0048 U (µmol s^−1)
- Vmax/mg with TbADKIN (original value) (T. brucei ADKIN; value before revision): 6.93 ± 0.29 U (µmol . min-1)
